The values below come from patent publication US9556179B2 (BRISTOL-MYERS SQUIBB COMPANY, priority 2012, dated 2017).

In one assay the target is CK1ε (Homo sapiens (Human), UniProt P49674). Put plainly: CK1ε kinase assay (Caliper LABCHIP electrophoretic separation of fluoresceinated peptide substrate and product). Type of assay: biochemical. Particulars: 200 pM enzyme, 50 μM ATP, 22 hours at room temperature. In short, it runs like this: (§1)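 Compounds, taken from 10 mM DMSO stocks, are titrated at eleven concentrations. Kinase reactions proceed for 22 hours at room temperature and are quenched with EDTA. Substrate and product are resolved electrophoretically, and IC50 values are fitted by non-linear regression.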
CK1ε, sequence (P49674 whole entry): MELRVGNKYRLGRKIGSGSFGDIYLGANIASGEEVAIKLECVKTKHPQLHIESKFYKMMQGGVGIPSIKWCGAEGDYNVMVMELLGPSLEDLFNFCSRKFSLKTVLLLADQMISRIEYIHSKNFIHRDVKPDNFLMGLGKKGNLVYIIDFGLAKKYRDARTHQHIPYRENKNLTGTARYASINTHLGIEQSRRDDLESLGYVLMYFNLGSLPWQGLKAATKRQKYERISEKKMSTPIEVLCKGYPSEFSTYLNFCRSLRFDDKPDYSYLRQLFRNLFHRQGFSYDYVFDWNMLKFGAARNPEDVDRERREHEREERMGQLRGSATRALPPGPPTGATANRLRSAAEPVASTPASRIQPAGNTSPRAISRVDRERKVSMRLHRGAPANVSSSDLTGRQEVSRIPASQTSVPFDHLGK

A further assay has as its target CK1δ (Homo sapiens (Human), UniProt P48730). Put plainly: CK1δ kinase assay (Caliper LABCHIP electrophoretic separation of fluoresceinated peptide substrate and product). Type of assay: biochemical. Particulars: 200 pM enzyme, 50 μM ATP, 22 hours at room temperature. In short, it runs like this:
as §1

CK1δ, sequence (P48730 whole entry): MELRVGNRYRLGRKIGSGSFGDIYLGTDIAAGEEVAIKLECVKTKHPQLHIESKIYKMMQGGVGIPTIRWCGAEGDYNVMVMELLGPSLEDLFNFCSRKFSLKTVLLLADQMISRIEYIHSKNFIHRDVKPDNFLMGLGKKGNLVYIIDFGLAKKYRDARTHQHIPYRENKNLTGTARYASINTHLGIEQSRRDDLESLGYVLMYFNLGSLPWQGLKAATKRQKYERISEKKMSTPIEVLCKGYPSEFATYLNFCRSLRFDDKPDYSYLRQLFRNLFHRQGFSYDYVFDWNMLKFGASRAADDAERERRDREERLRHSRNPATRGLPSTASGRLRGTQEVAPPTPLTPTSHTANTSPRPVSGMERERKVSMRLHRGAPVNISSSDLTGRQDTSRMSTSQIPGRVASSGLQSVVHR

As usually defined, the IC50 is the concentration at which inhibition is half-maximal. Read a high IC50 as a need for much substance. For `O=C(Nc1cn2nc(-c3c(-c4cccc(Cl)c4)ncn3CC(F)F)ccc2n1)c1ccnc(F)c1` [Compound 242, N-(6-(4-(3-chlorophenyl)-1-(2,2-difluoroethyl)-1H-imidazol-5-yl)imidazo[1,2-b]pyridazin-2-yl)-2-fluoroisonicotinamide], the IC50 against CK1ε was determined as 12 nM; at CK1δ, 2.16 nM.

On to `O=C(Nc1cn2nc(-c3c(-c4ccccc4)ncn3CC(F)F)ccc2n1)c1ccnc(F)c1` [Compound 243, N-(6-(1-(2,2-difluoroethyl)-4-phenyl-1H-imidazol-5-yl)imidazo[1,2-b]pyridazin-2-yl)-2-fluoroisonicotinamide], for which the IC50 was found to be 5.96 nM against CK1ε and 0.652 nM against CK1δ.

Regarding `O=C(Nc1cn2nc(-c3c(-c4cccc(F)c4)ncn3CC(F)F)ccc2n1)c1ccnc(F)c1` [Compound 245, N-(6-(1-(2,2-difluoroethyl)-4-(3-fluorophenyl)-1H-imidazol-5-yl)imidazo[1,2-b]pyridazin-2-yl)-2-fluoroisonicotinamide], the concentration for half-maximal inhibition (IC50) at CK1ε worked out at 7.43 nM; at CK1δ, 0.899 nM.

`O=C(Nc1cn2nc(-c3c(-c4ccccc4F)ncn3CC(F)F)ccc2n1)c1ccnc(F)c1` [Compound 246, N-(6-(1,(2,2-difluoroethyl)-4-(2-fluorophenyl)-1H-imidazol-5-yl)imidazo[1,2-b]pyridazin-2-yl)-2-fluoroisonicotinamide]: the IC50 at CK1ε was 5.96 nM; at CK1δ, 0.769 nM.

In the case of `O=C(Nc1cn2nc(-c3c(-c4ccc(F)cc4)ncn3CC3CC(F)(F)C3)ccc2n1)c1ccnc(F)c1` [Compound 249, N-(6-(1-((3,3-difluorocyclobutyl)methyl)-4-(4-fluorophenyl)-1H-imidazol-5-yl)imidazo[1,2-b]pyridazin-2-yl)-2-fluoroiso-nicotinamide], the IC50 came to 1.1 nM against CK1ε and 0.371 nM against CK1δ.

As to `O=C(Nc1cn2nc(-c3c(-c4ccc(F)cc4)ncn3CC(=O)N3CCCC3)ccc2n1)c1ccnc(F)c1` [Compound 250, 2-fluoro-N-(6-(4-(4-fluorophenyl)-1-(2-oxo-2-(1-pyrrolidinyl)ethyl)-1H-imidazol-5-yl)imidazo[1,2-b]pyridazin-2-yl)isonicotinamide], the values for the IC50 at CK1ε and on CK1δ were 8.38 nM and 0.292 nM, respectively.

Regarding `O=C(Nc1cn2nc(-c3c(-c4ccc(F)cc4)ncn3CCN3CCC(F)(F)CC3)ccc2n1)c1ccnc(F)c1` [Compound 251, N-(6-(1-(2-(4,4-difluoro-1-piperi-dinyl)ethyl)-4-(4-fluorophenyl)-1H-imidazol-5-yl)imidazo[1,2-b]pyridazin-2-yl)-2-fluoroiso-nicotinamide], the IC50 against CK1ε was determined as 5.38 nM; at CK1δ, 0.385 nM.

With `O=C(Nc1cn2nc(-c3c(-c4ccc(F)cc4)ncn3CCOCC(F)(F)F)ccc2n1)c1ccnc(F)c1` [Compound 252, 2-fluoro-N-(6-(4-(4-fluorophenyl)-1-(2-(2,2,2-trifluoroethoxy)ethyl)-1H-imidazol-5-yl)imidazo[1,2-b]pyridazin-2-yl)isonicotinamide], the IC50 against CK1ε is 2.51 nM; against CK1δ it was 0.347 nM.

As to `Cn1cnc(Cn2cnc(-c3ccc(F)cc3)c2-c2ccc3nc(NC(=O)c4ccnc(F)c4)cn3n2)c1` [Compound 253, 2-fluoro-N-(6-(4-(4-fluorophenyl)-1-((1-methyl-1H-imidazol-4-yl)methyl)-1H-imidazol-5-yl)imidazo[1,2-b]pyridazin-2-yl) isonicotinamide], the IC50 was found to be 18 nM on CK1ε and 1.15 nM against CK1δ.

Consider `O=C(Nc1cn2nc(-c3c(-c4ccc(F)cc4)ncn3CCn3cccn3)ccc2n1)c1ccnc(F)c1` [Compound 254, 2-fluoro-N-(6-(4-(4-fluorophenyl)-1-(2-(1H-pyrazol-1-yl)ethyl)-1H-imidazol-5-yl)imidazo[1,2-b]pyridazin-2-yl)isonicotinamide], for which the values for the IC50 against CK1ε and against CK1δ were 18.7 nM and 1.12 nM, respectively.

For `O=C(Nc1cn2nc(-c3c(-c4ccc(F)cc4)ncn3CCc3c[nH]cn3)ccc2n1)c1ccnc(F)c1` [Compound 255, 2-fluoro-N-(6-(4-(4-fluorophenyl)-1-(2-(1H-imidazol-4-yl)ethyl)-1H-imidazol-5-yl)imidazo[1,2-b]pyridazin-2-yl)isonicotinamide], the IC50 on CK1ε stood at 2.45 nM; against CK1δ it was 0.386 nM.

For `CC(C)(C)C1CCC(n2cnc(-c3ccc(F)cc3)c2-c2ccc3nc(NC(=O)c4ccnc(F)c4)cn3n2)CC1` (stereo not shown) [Compound 256, N-(6-(1-(4-tert-butylcyclohexyl)-4-(4-fluorophenyl)-1H-imidazol-5-yl)imidazo[1,2-b]pyridazin-2-yl)-2-fluoroisonicotinamide], the IC50 at CK1ε worked out at 230 nM; against CK1δ it was 10.2 nM.

In the case of `O=C(Nc1cn2nc(-c3c(-c4ccc(F)cc4)ncn3C3CCCCC3)ccc2n1)c1ccnc(F)c1` [Compound 257, N-(6-(1-cyclohexyl-4-(4-fluoro-phenyl)-1H-imidazol-5-yl)imidazo[1,2-b]pyridazin-2-yl)-2-fluoroisonicotinamide], the figures for the IC50 against CK1ε and on CK1δ were 2.29 nM and 0.325 nM, respectively.

With `CC(C)(C)Cn1cnc(-c2ccc(F)cc2)c1-c1ccc2nc(NC(=O)c3ccnc(F)c3)cn2n1` [Compound 258, N-(6-(1-(2,2-dimethylpropyl)-4-(4-fluorophenyl)-1H-imidazol-5-yl)imidazo[1,2-b]pyridazin-2-yl)-2-fluoroisonicotinamide], the results for the IC50 against CK1ε and on CK1δ were 6.56 nM and 0.393 nM, respectively.

Turning to `Cn1cc(Cn2cnc(-c3ccc(F)cc3)c2-c2ccc3nc(NC(=O)c4ccnc(F)c4)cn3n2)cn1` [Compound 259, 2-fluoro-N-(6-(4-(4-fluorophenyl)-1-((1-methyl-1H-pyrazol-4-yl)methyl)-1H-imidazol-5-yl)imidazo[1,2-b]pyridazin-2-yl) isonicotinamide], the IC50 on CK1ε came to 3.17 nM; on CK1δ it was 0.314 nM.

Regarding `O=C(Nc1cn2nc(-c3c(-c4ccc(F)cc4)ncn3CCN3CCCCC3=O)ccc2n1)c1ccnc(F)c1` [Compound 261, 2-fluoro-N-(6-(4-(4-fluorophenyl)-1-(2-(2-oxopiperidin-1-yl)ethyl)-1H-imidazol-5-yl)imidazo[1,2-b]pyridazin-2-yl)isonicotinamide], the IC50 on CK1ε was determined as 14.8 nM; against CK1δ, 0.403 nM.

As to `O=C(Nc1cn2nc(-c3c(-c4ccc(F)cc4)ncn3C3CC(F)(F)C3)ccc2n1)c1ccnc(F)c1` [Compound 262, N-(6-(1-(3,3-difluorocyclobutyl)-4-(4-fluorophenyl)-1H-imidazol-5-yl)imidazo[1,2-b]pyridazin-2-yl)-2-fluoroisonicotinamide], the results for the half-maximal inhibitory concentration (IC50) on CK1ε and against CK1δ were 3.48 nM and 0.331 nM, respectively.

As for `O=C(Nc1cn2nc(-c3c(-c4ccc(F)cc4)ncn3CCCn3ccnc3)ccc2n1)c1ccnc(F)c1` [Compound 263, 2-fluoro-N-(6-(4-(4-fluorophenyl)-1-(3-(1H-imidazol-1-yl)propyl)-1H-imidazol-5-yl)imidazo[1,2-b]pyridazin-2-yl)isonicotinamide], the IC50 was found to be 5.4 nM at CK1ε and 0.436 nM against CK1δ.

On to `CC(C)(C)c1cc(Cn2cnc(-c3ccc(F)cc3)c2-c2ccc3nc(NC(=O)c4ccnc(F)c4)cn3n2)n[nH]1` [Compound 264], for which the IC50 at CK1ε was 156 nM; against CK1δ, 41.5 nM.

On to `O=C(Nc1cn2nc(-c3c(-c4ccc(F)cc4)ncn3CCc3cn[nH]c3)ccc2n1)c1ccnc(F)c1` [Compound 265], for which the figures for the IC50 on CK1ε and against CK1δ were 0.719 nM and 0.147 nM, respectively.
